# Experimental data: patent US20070117770A1, “Human ribosomal DNA (rDNA) and ribosomal RNA (rRNA) nucleic acids and uses thereof” (Cylene Pharmaceuticals, Inc., priority 2005, published 2007)
# Columns and labels:
# Experiment in all cases: Protein kinase inhibition assay
# Type in all cases: biochemical
# Aurora-A(h) = Aurora-A(h) (Homo sapiens, UniProt O14965); settings: read-out: percent residual activity of Aurora-A(h)
# Protocol: (§1) Certain compounds were tested for activity in protein kinase inhibition assays. All substrates were dissolved and diluted to working stocks in de-ionized water, apart from histone H1 (10× working stock in 20 mM MOPS pH 7.0), PDKtide (10× working stock in 50 mM Tris pH 7.0) ATF2 (which is typically stored at a 20× working stock in 50 mM Tris pH 7.5, 150 mM NaCl, 0.1 mM EGTA, 0.03% Brij-35, 50% glycerol, 1 mM benzamidine, 0.2 mM PMSF and 0.1% R-mercaptoethanol), KKLNRTLSFAEPG (SEQ ID NO:203) and RRRLSFAEPG (SEQ ID NO:204) (50 mM HEPES pH 7.4) and GGEEEEYFELVKKKK (SEQ ID NO:205) (20 mM MOPS pH 7.0). All kinases were pre-diluted to a 10× working concentration prior to addition into the assay. The composition of the dilution buffer for each kinase is detailed below.
# In a final reaction volume of 25 μl, Aurora-A (h) (5-10 mU) is incubated with 8 mM MOPS pH 7.0, 0.2 mM EDTA, 200 μM LRRASLG (SEQ ID NO:209) (Kemptide), 10 mM MgAcetate and [gamma-33P-ATP] (specific activity approx. 500 cpm/pmol, concentration as required). The reaction is initiated by the addition of the MgATP mix. After incubation for 40 minutes at room temperature, the reaction is stopped by the addition of 5 μl of a 3% phosphoric acid solution. […]
# CHK1(h) = CHK1(h) (Homo sapiens, UniProt O14757); settings: read-out: percent residual activity of CHK1(h)
# Protocol: as §1
# In a final reaction volume of 25 μl, CHK1 (h) (5-10 mU) is incubated with 8 mM MOPS pH 7.0, 0.2 mM EDTA, 200 μM […] (SEQ ID NO:213), 10 mM MgAcetate and [gamma-33P-ATP] (specific activity approx. 500 cpm/pmol, concentration as required). The reaction is initiated by the addition of the MgATP mix. After incubation for 40 minutes at room temperature, the reaction is stopped by the addition of 5 μl of a 3% phosphoric acid solution. 10 μl of the reaction is then spotted onto a P30 filtermat and washed three times for 5 minutes in 75 mM phosphoric acid and once in methanol prior to drying and scintillation counting.
# EGFR(L858R)(h) = EGFR(L858R)(h) (Homo sapiens, UniProt P00533, L858R); settings: read-out: percent residual activity of EGFR(L858R)(h)
# Protocol: as §1
# (§2) In a final reaction volume of 25 μl, EGFR (L858R) (h) (5-10 mU) is incubated with 8 mM MOPS pH 7.0, 0.2 mM EDTA, 0.1 mg/ml poly(Glu, Tyr) 4:1, 10 mM MgAcetate and [gamma-33P-ATP] (specific activity approx. 500 cpm/pmol, concentration as required). The reaction is initiated by the addition of the MgATP mix. After incubation for 40 minutes at room temperature, the reaction is stopped by the addition of 5 μl of a 3% phosphoric acid solution. 10 μl of the reaction is then spotted onto a Filtermat A and washed three times for 5 minutes in 75 mM phosphoric acid and once in methanol prior to drying and scintillation counting.
# PDGFRα(h) = PDGFRα(h) (Homo sapiens, UniProt P16234); settings: read-out: percent residual activity of PDGFRα(h)
# Protocol: as §1
# as §2, with “PDGFRα” for “EGFR (L858R)”, “4:1, 10 mM MnCl2,” for “4:1,”
# PRAK(h) = PRAK(h) (Homo sapiens, UniProt Q8IW41); settings: read-out: percent residual activity of PRAK(h)
# Protocol: as §1
# In a final reaction volume of 25 μl, PRAK (h) (5-10 mU) is incubated with 50 mM Na R-glycerophosphate pH 7.5, 0.1 mM EGTA, 30 μM KKLRRTLSVA (SEQ ID NO:212), 10 mM MgAcetate and [gamma-33P-ATP) (specific activity approx. 500 cpm/pmol, concentration as required). The reaction is initiated by the addition of the MgATP mix. After incubation for 40 minutes at room temperature, the reaction is stopped by the addition of 5 μl of a 3% phosphoric acid solution. […]
# Rsk1(r) = Rsk1(r) (Rattus norvegicus, UniProt Q63531); settings: read-out: percent residual activity of Rsk1(r)
# Protocol: as §1
# In a final reaction volume of 25 μl, Rsk1 (r) (5-10 mU) is incubated with 8 mM MOPS pH 7.0, 0.2 mM EDTA, 30 μM KKKNRTLSVA (SEQ ID NO:212), 10 mM MgAcetate and [gamma-33P-ATP] (specific activity approx. 500 cpm/pmol, concentration as required). The reaction is initiated by the addition of the MgATP mix. After incubation for 40 minutes at room temperature, the reaction is stopped by the addition of 5 μl of a 3% phosphoric acid solution. 10 μl of the reaction is then spotted onto a P30 filtermat and washed three times for 5 minutes in 75 mM phosphoric acid and once in methanol prior to drying and scintillation counting.
# Sequence of Rsk1(r) (Q63531 whole entry): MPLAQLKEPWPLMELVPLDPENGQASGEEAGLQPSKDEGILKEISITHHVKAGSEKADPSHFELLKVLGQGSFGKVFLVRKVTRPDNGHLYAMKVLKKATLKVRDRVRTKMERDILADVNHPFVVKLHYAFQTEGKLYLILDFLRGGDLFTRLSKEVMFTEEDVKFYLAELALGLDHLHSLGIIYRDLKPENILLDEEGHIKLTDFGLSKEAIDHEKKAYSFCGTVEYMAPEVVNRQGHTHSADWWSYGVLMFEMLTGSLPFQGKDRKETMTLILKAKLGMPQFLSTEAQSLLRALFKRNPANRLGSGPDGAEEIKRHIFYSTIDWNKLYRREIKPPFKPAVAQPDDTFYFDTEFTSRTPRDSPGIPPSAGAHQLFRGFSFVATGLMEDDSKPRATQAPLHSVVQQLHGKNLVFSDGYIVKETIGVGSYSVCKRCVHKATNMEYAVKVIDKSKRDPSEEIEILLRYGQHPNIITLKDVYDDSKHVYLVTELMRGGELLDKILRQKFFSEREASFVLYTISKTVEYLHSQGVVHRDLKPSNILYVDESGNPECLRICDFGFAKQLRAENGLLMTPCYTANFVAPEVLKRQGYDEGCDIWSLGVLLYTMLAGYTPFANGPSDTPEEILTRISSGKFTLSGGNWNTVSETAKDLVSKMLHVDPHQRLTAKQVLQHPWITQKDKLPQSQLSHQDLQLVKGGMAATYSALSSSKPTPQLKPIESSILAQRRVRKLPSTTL
# Sequence of EGFR(L858R)(h) (P00533 25-1210 L858R): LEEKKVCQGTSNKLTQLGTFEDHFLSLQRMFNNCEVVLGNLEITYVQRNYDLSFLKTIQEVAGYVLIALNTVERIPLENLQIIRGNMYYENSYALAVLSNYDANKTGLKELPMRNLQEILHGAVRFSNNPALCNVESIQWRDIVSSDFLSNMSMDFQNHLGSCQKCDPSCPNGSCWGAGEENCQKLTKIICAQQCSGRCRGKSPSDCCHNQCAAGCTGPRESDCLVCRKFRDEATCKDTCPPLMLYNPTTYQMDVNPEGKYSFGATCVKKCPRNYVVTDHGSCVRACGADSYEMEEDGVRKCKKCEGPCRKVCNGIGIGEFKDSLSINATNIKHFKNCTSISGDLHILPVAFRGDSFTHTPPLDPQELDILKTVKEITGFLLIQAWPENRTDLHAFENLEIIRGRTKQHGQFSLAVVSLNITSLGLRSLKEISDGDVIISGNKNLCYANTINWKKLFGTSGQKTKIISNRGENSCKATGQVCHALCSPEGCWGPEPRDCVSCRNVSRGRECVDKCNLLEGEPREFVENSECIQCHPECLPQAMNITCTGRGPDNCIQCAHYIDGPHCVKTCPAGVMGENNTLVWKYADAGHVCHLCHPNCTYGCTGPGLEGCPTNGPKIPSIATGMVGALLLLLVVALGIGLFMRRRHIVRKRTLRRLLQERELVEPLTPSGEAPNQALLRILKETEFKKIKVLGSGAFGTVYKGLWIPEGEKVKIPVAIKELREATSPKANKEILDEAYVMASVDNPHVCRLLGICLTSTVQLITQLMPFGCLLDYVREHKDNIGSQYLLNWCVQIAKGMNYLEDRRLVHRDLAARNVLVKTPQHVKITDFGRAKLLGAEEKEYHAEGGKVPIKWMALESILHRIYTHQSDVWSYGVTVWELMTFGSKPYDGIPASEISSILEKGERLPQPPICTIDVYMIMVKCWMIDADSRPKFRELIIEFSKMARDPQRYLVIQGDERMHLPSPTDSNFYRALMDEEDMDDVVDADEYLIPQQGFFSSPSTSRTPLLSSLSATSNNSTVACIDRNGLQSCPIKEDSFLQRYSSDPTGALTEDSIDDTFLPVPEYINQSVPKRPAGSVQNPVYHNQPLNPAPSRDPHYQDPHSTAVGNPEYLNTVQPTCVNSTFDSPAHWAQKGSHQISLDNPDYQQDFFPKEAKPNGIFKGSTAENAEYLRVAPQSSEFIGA
# Sequence of CHK1(h) (O14757 whole entry): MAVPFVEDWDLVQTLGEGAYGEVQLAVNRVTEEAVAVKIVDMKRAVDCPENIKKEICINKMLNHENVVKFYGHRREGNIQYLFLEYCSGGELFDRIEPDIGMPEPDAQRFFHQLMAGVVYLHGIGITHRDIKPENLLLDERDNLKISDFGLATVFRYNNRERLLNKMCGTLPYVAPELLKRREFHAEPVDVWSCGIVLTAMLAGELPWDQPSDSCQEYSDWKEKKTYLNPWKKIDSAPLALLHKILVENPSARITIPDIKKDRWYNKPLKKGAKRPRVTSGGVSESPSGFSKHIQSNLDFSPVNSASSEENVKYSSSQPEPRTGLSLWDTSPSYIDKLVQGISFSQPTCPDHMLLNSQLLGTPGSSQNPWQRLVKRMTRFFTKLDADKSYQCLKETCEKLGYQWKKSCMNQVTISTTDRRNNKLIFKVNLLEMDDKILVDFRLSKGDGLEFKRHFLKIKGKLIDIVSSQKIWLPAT
# Sequence of PRAK(h) (Q8IW41 whole entry): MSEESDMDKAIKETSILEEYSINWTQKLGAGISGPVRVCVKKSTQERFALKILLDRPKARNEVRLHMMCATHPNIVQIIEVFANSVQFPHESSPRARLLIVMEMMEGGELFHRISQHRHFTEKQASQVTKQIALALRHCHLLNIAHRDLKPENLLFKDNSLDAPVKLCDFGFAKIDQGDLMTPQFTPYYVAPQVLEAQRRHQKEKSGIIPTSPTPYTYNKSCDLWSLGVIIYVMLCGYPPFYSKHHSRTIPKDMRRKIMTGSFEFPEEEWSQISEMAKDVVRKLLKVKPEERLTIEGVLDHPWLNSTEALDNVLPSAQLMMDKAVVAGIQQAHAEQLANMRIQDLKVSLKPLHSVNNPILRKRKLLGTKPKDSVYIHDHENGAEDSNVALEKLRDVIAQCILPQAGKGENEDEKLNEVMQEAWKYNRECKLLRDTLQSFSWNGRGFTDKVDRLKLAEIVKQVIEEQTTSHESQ
# Sequence of Aurora-A(h) (O14965 whole entry): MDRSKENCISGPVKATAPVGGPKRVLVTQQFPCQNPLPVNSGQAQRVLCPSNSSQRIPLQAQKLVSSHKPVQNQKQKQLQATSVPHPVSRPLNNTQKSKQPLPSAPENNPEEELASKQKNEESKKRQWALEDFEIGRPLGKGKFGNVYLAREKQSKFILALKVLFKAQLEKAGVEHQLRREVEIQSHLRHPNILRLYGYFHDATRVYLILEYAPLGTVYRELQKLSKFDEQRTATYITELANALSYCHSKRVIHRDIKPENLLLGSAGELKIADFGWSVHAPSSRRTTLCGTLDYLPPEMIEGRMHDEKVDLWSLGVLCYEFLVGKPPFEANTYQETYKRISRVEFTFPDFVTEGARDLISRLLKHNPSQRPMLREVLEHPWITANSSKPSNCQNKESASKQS
# Sequence of PDGFRα(h) (P16234 24-1089): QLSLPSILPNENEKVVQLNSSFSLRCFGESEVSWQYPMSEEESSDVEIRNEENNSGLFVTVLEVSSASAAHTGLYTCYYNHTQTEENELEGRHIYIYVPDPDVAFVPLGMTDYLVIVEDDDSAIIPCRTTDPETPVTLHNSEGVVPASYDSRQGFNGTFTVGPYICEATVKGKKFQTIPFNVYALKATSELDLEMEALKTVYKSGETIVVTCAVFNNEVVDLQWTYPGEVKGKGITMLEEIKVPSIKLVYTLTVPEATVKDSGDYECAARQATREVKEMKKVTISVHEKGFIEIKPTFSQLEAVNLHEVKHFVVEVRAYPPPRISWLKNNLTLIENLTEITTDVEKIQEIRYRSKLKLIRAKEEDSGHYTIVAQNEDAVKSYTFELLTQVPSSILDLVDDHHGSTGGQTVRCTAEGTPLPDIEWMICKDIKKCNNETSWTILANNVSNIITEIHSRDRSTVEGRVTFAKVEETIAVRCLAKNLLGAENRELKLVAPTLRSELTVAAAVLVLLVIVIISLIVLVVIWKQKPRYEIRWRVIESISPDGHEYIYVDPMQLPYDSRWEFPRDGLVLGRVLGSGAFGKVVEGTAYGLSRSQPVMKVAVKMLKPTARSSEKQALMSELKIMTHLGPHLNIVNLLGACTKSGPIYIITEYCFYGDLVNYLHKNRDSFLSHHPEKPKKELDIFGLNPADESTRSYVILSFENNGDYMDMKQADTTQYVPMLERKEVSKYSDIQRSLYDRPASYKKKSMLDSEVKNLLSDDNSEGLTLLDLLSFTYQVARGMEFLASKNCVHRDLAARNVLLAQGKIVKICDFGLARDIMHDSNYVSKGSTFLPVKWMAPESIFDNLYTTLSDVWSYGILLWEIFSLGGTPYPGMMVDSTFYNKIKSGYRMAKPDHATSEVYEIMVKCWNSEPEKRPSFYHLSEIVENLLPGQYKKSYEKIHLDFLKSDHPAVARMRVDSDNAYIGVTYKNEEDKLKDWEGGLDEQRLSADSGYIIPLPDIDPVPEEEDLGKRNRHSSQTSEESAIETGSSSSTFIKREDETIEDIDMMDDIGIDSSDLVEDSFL
SMILES,remaining activity at 2.5 µM (Aurora-A(h)),remaining activity at 2.5 µM (CHK1(h)),remaining activity at 2.5 µM (EGFR(L858R)(h)),remaining activity at 2.5 µM (PDGFRα(h)),remaining activity at 2.5 µM (PRAK(h)),remaining activity at 2.5 µM (Rsk1(r))
CN1CCCC1CCNC(=O)c1cn2c3c(c(N4CCC(c5cnccn5)C4)c(F)cc3c1=O)Oc1cc3ccccc3cc1-2 (stereo not drawn) [Compound A-1],43%,95%,113%,108%,105%,85%
CC(=O)N1CCN(c2ccc3c(=O)c(C(=O)NCCN4CCCC4)c4n(C)c5ccccc5n4c3n2)CC1 [Compound B-1],104%,106%,109%,106%,111%,110%
